The record followed here is patent US10287328B2, “Treatment of diabetes, toll-like receptor 4 modulators and methods for using the same” (KeMyth Biotech Co., Ltd., priority 2016, dated 2019).

This assay has as its system HUVEC. In words: Low shear stress experiment on HUVEC (morphology, F-actin immunofluorescence). As to conditions: peptide pre-treatment 1 hour (100 mM), shear stress 4 dyn/cm^2 for 6 hours. The format is cell-based, human. The method, then: HUVEC was purchased by ScienCell Research Laboratories (CA, USA). The pellet was resuspended in M199 culture medium supplemented with penicillin/streptomycin and 20% fetal bovine serum (FBS), after which the cells were plated onto cell culture dishes. ECs were grown in Petri dishes for three days and then seeded onto glass slides pre-coated with rat tail type I collagen. Secondary cultures were used for the experiments within two days after reaching confluence (˜1-2×10^5 cells/cm^2).^12
HUVECs was mounted on a slide in a parallel-plate flow chamber, which was connected to a perfusion loop system (15). The system was kept in a constant-temperature, maintained at pH 7.4 by gassing with 5% CO2. The osmolality of the medium was kept in the range 285-295 mOsm/kg during perfusion. The flow channel width (w) was 1 cm and the channel height (h) was 0.025 cm. […]
After exposing to shear stress with or without peptide treatment, HUVECs were washed, fixed with 4% formaldehyde, and permeabilized by 1% Triton X-100 in PBS at 37° C. for 30 min. […] Intracytoplasmic F-actin immunofluorescence was detected by staining with phalloidin-fluorescein isothiocyanate (FITC) (1:1000 eBioscience) for 1 hr at room temperature, and cell nuclear stained with 4′,6-diamidino-2-phenylindole (DAPI) for 10 min at room temperature. Fluorescent cells were photographed by a fluorescence microscope with CCD (OLYMPUS).

Turning to “QDLTAHFTTSIPLKGNVRNLSVKIRECTGLAWEWWRTVYEKTDLPLVRKRTISIWGTTLYPQVEDKVEND [C70PLY4]”, the “low shear stress induced cytoskeleton (F-actin) remodeling” value is “almost block” and the “low shear stress induced morphological change” value was “almost block”.
